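How tested: cells in 96-well plates exposed to compound for 48 hours at five concentrations. TGI denotes the concentration required for complete inhibition of growth.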
Experiments:
Assay in all cases: NCI anticancer screen, dose series, 48 h
IGROV1 ovarian = tested on: IGROV1 ovarian
HOP-92 NSCLC = tested on: HOP-92 NSCLC
CCRF-CEM leukemia = tested on: CCRF-CEM leukemia
UO-31 renal = tested on: UO-31 renal
NCI-H23 lung = tested on: NCI-H23 lung
OVCAR-4 ovarian = tested on: OVCAR-4 ovarian
M19-MEL melanoma = tested on: M19-MEL melanoma
HCC-2998 colon = tested on: HCC-2998 colon
SF-268 CNS = tested on: SF-268 CNS
MALME-3M melanoma = tested on: MALME-3M melanoma
HCT-15 colon = tested on: HCT-15 colon
SNB-19 CNS = tested on: SNB-19 CNS
SF-295 CNS = tested on: SF-295 CNS
SR leukemia = tested on: SR leukemia
786-0 renal = tested on: 786-0 renal
UACC-62 melanoma = tested on: UACC-62 melanoma
COLO 205 colon = tested on: COLO 205 colon
RXF 393 renal = tested on: RXF 393 renal
KM12 colon = tested on: KM12 colon
HL-60(TB) leukemia = tested on: HL-60(TB) leukemia
HT29 colon = tested on: HT29 colon
ACHN renal = tested on: ACHN renal
A549 NSCLC = tested on: A549 NSCLC
TK-10 renal = tested on: TK-10 renal
SW-620 colon = tested on: SW-620 colon
SK-OV-3 ovarian = tested on: SK-OV-3 ovarian
U251 CNS = tested on: U251 CNS
OVCAR-8 ovarian = tested on: OVCAR-8 ovarian
DMS 114 small cell lung = tested on: DMS 114 small cell lung
M14 melanoma = tested on: M14 melanoma
CAKI-1 renal = tested on: CAKI-1 renal
XF 498 CNS = tested on: XF 498 CNS
OVCAR-5 ovarian = tested on: OVCAR-5 ovarian
K-562 leukemia = tested on: K-562 leukemia
MOLT-4 leukemia = tested on: MOLT-4 leukemia
SK-MEL-5 melanoma = tested on: SK-MEL-5 melanoma
EKVX NSCLC = tested on: EKVX NSCLC
SN12C renal = tested on: SN12C renal
DLD-1 colon = tested on: DLD-1 colon
SF-539 CNS = tested on: SF-539 CNS
OVCAR-3 ovarian = tested on: OVCAR-3 ovarian
RXF-631 renal = tested on: RXF-631 renal
SNB-78 CNS = tested on: SNB-78 CNS
SK-MEL-28 melanoma = tested on: SK-MEL-28 melanoma
KM20L2 colon = tested on: KM20L2 colon
LXFL 529 NSCLC = tested on: LXFL 529 NSCLC
NCI-H522 lung = tested on: NCI-H522 lung
SK-MEL-2 melanoma = tested on: SK-MEL-2 melanoma
LOX IMVI melanoma = tested on: LOX IMVI melanoma
HOP-62 NSCLC = tested on: HOP-62 NSCLC
NCI-H460 lung = tested on: NCI-H460 lung
A498 renal = tested on: A498 renal
SNB-75 CNS = tested on: SNB-75 CNS
UACC-257 melanoma = tested on: UACC-257 melanoma
HCT-116 colon = tested on: HCT-116 colon
NCI-H226 lung = tested on: NCI-H226 lung
DMS 273 small cell lung = tested on: DMS 273 small cell lung

COc1cc(/C=C(\NC(=O)c2ccccc2)c2nc3[nH]c(=S)[nH]c(=O)c3[nH]2)cc(OC)c1OC
TGI (IGROV1 ovarian): > 100 µM
TGI (HOP-92 NSCLC): > 100 µM
TGI (CCRF-CEM leukemia): > 100 µM
TGI (UO-31 renal): > 100 µM
TGI (NCI-H23 lung): > 100 µM
TGI (OVCAR-4 ovarian): > 100 µM
TGI (M19-MEL melanoma): > 100 µM
TGI (HCC-2998 colon): > 100 µM
TGI (SF-268 CNS): > 100 µM
TGI (MALME-3M melanoma): > 100 µM
TGI (HCT-15 colon): > 100 µM
TGI (SNB-19 CNS): > 100 µM
TGI (SF-295 CNS): > 100 µM
TGI (SR leukemia): > 100 µM
TGI (786-0 renal): > 100 µM
TGI (UACC-62 melanoma): > 100 µM
TGI (COLO 205 colon): > 100 µM
TGI (RXF 393 renal): > 100 µM
TGI (KM12 colon): > 100 µM
TGI (HL-60(TB) leukemia): > 100 µM
TGI (HT29 colon): > 100 µM
TGI (ACHN renal): > 100 µM
TGI (A549 NSCLC): > 100 µM
TGI (TK-10 renal): > 100 µM
TGI (SW-620 colon): > 100 µM
TGI (SK-OV-3 ovarian): > 100 µM
TGI (U251 CNS): > 100 µM
TGI (OVCAR-8 ovarian): > 100 µM
TGI (DMS 114 small cell lung): > 100 µM
TGI (M14 melanoma): > 100 µM
TGI (CAKI-1 renal): > 100 µM
TGI (XF 498 CNS): > 100 µM
TGI (OVCAR-5 ovarian): > 100 µM
TGI (K-562 leukemia): > 100 µM
TGI (MOLT-4 leukemia): > 100 µM
TGI (SK-MEL-5 melanoma): > 100 µM
TGI (EKVX NSCLC): > 100 µM
TGI (SN12C renal): > 100 µM
TGI (DLD-1 colon): > 100 µM
TGI (SF-539 CNS): > 100 µM
TGI (OVCAR-3 ovarian): > 100 µM
TGI (RXF-631 renal): > 100 µM
TGI (SNB-78 CNS): > 100 µM
TGI (SK-MEL-28 melanoma): > 100 µM
TGI (KM20L2 colon): > 100 µM
TGI (LXFL 529 NSCLC): > 100 µM
TGI (NCI-H522 lung): > 100 µM
TGI (SK-MEL-2 melanoma): > 100 µM

CC1CC[C@@]23CCC4(C)[C@@](C=CC5[C@@]6(C)CCC(=O)C(C)(C)C6CC[C@]54C)(OC2=O)[C@@H]3[C@H]1C (stereo partly specified)
TGI (IGROV1 ovarian): > 100 µM
TGI (HOP-92 NSCLC): 41.7 µM
TGI (CCRF-CEM leukemia): 53.4 µM
TGI (UO-31 renal): 40.2 µM
TGI (NCI-H23 lung): 42 µM
TGI (OVCAR-4 ovarian): > 100 µM
TGI (M19-MEL melanoma): 68.5 µM
TGI (LOX IMVI melanoma): 36.3 µM
TGI (SF-268 CNS): > 100 µM
TGI (MALME-3M melanoma): 52 µM
TGI (SNB-19 CNS): > 100 µM
TGI (SF-295 CNS): 73.2 µM
TGI (SR leukemia): 26.5 µM
TGI (786-0 renal): > 100 µM
TGI (UACC-62 melanoma): > 100 µM
TGI (COLO 205 colon): 27.7 µM
TGI (RXF 393 renal): 41.2 µM
TGI (KM12 colon): 36.8 µM
TGI (HL-60(TB) leukemia): 13.3 µM
TGI (HT29 colon): 51.3 µM
TGI (ACHN renal): 78.2 µM
TGI (HOP-62 NSCLC): 42.6 µM
TGI (A549 NSCLC): 81 µM
TGI (NCI-H460 lung): 58 µM
TGI (A498 renal): 62.5 µM
TGI (TK-10 renal): 56.5 µM
TGI (SW-620 colon): > 100 µM
TGI (SK-OV-3 ovarian): 80 µM
TGI (SNB-75 CNS): 55 µM
TGI (UACC-257 melanoma): 52.8 µM
TGI (U251 CNS): 52.9 µM
TGI (HCT-116 colon): 22.7 µM
TGI (OVCAR-8 ovarian): > 100 µM
TGI (DMS 114 small cell lung): 34.1 µM
TGI (M14 melanoma): > 100 µM
TGI (NCI-H226 lung): 58.9 µM
TGI (CAKI-1 renal): > 100 µM
TGI (XF 498 CNS): 34.2 µM
TGI (K-562 leukemia): > 100 µM
TGI (MOLT-4 leukemia): 27.8 µM
TGI (SK-MEL-5 melanoma): 28.5 µM
TGI (EKVX NSCLC): 82.9 µM
TGI (SN12C renal): > 100 µM
TGI (DLD-1 colon): > 100 µM
TGI (SF-539 CNS): 86.3 µM
TGI (OVCAR-3 ovarian): 39.3 µM
TGI (RXF-631 renal): 71.4 µM
TGI (SNB-78 CNS): 67.9 µM
TGI (SK-MEL-28 melanoma): > 100 µM
TGI (KM20L2 colon): > 100 µM
TGI (LXFL 529 NSCLC): 74.7 µM
TGI (NCI-H522 lung): 37.9 µM

CN=c1ssc(/N=C(\SC)N(C)C)[n+]1C
TGI (IGROV1 ovarian): > 100 µM
TGI (HOP-92 NSCLC): > 100 µM
TGI (CCRF-CEM leukemia): > 100 µM
TGI (UO-31 renal): > 100 µM
TGI (NCI-H23 lung): > 100 µM
TGI (HCC-2998 colon): > 100 µM
TGI (LOX IMVI melanoma): > 100 µM
TGI (SF-268 CNS): > 100 µM
TGI (HCT-15 colon): > 100 µM
TGI (SNB-19 CNS): > 100 µM
TGI (DMS 273 small cell lung): > 100 µM
TGI (SF-295 CNS): > 100 µM
TGI (SR leukemia): > 100 µM
TGI (786-0 renal): > 100 µM
TGI (UACC-62 melanoma): > 100 µM
TGI (RXF 393 renal): > 100 µM
TGI (KM12 colon): > 100 µM
TGI (HL-60(TB) leukemia): > 100 µM
TGI (HT29 colon): > 100 µM
TGI (ACHN renal): > 100 µM
TGI (HOP-62 NSCLC): > 100 µM
TGI (A549 NSCLC): > 100 µM
TGI (NCI-H460 lung): > 100 µM
TGI (TK-10 renal): > 100 µM
TGI (SW-620 colon): > 100 µM
TGI (SK-OV-3 ovarian): > 100 µM
TGI (UACC-257 melanoma): > 100 µM
TGI (U251 CNS): > 100 µM
TGI (HCT-116 colon): > 100 µM
TGI (OVCAR-8 ovarian): > 100 µM
TGI (M14 melanoma): > 100 µM
TGI (NCI-H226 lung): > 100 µM
TGI (CAKI-1 renal): > 100 µM
TGI (XF 498 CNS): > 100 µM
TGI (OVCAR-5 ovarian): > 100 µM
TGI (K-562 leukemia): > 100 µM
TGI (MOLT-4 leukemia): > 100 µM
TGI (SK-MEL-5 melanoma): > 100 µM
TGI (EKVX NSCLC): > 100 µM
TGI (SN12C renal): > 100 µM
TGI (RXF-631 renal): > 100 µM
TGI (SNB-78 CNS): > 100 µM
TGI (SK-MEL-28 melanoma): > 100 µM
TGI (LXFL 529 NSCLC): > 100 µM
TGI (NCI-H522 lung): > 100 µM
TGI (SK-MEL-2 melanoma): > 100 µM
